Measured values reported in PubChem BioAssay AID504539 (Broad Institute, 2011).

Each compound was assayed on Cell-based prion protein 5' UTR reporter, plate reader (assay: prion protein 5' UTR mRNA inhibitors – cell-based, plate reader, cherry-picked samples, dose response (AID 504539)).

| Compound | AC50 [nM] |
| --- | --- |
| COC1C(C)OC(OC2CC(C)(O)Cc3cc4c(c(O)c32)C(=O)c2c(O)cc3c(c2C4=O)OC2OC3(C)C(O)C(N(C)C)C2O)C(OC)C1(C)OC (stereo unspecified) | 118 |
| O=C1NC2C(O)C(O)C(O)C(O)C2c2cc3c(c(O)c21)OCO3 (stereo unspecified) | 1480 |
| CCC(=O)Nc1cc2nn(-c3ccc(C)cc3)nc2cc1C | 465 |
| C=C1C(=O)O[C@@H]2C[C@@H](C)[C@@H]3C=CC(=O)[C@@]3(C)[C@@H](O)[C@H]12 | 1580 |
| CN(C)c1ccc(/C=C2\SC(=O)N(CCc3nnc(N)s3)C2=O)cc1 | 481 |
| O=C(Nc1ccc(-c2nc3cccnc3s2)cc1)C1CCCO1 (stereo unspecified) | 630 |
| COc1ccccc1-c1nnc2n1N=C(c1ccc(O)c(O)c1)CS2 | 206 |
| Cc1ccc(C(=O)O/N=C(\N)c2ccccn2)c(C)c1 | 46 |
| CCCc1ccc(C(=O)O/N=C(\N)c2ccccn2)cc1 | 1080 |
| CC1(C)CC[C@]2(C(=O)n3ccnc3)CC[C@]3(C)[C@H](C(=O)C=C4[C@@]5(C)C=C(C#N)C(=O)C(C)(C)[C@@H]5CC[C@]43C)[C@@H]2C1 | 808 |
| CN1CCN(c2ccc(-c3ccc4ccccc4n3)cc2)CC1 | 113 |
| COc1ccc(-c2cc3nc(C)n(N)c(=O)c3s2)cc1 | 113 |
| O=C(N/N=C/c1ccccc1)c1[nH]c2ccc(Br)cc2c1-c1ccccc1 | 460 |
| CN(C)c1ccc(Nc2nc(N)c3ccccc3n2)cc1 | 562 |
| O=C1c2cccc3cc([N+](=O)[O-])cc(c23)C(=O)N1CCN1CCCC1 | 521 |
| Cc1ccc(C(=O)NCCc2ccccc2)cc1 | 612 |
| COCCn1c(C)cc(C2=NNC(=NC3CC3)SC2)c1C | < 38 |
| Cc1ccc(C(=O)N/N=C/c2ccc([N+](=O)[O-])s2)cc1 | 1010 |
| CC(=O)OC1C(O)C(C)OC(OC2C(OC(=O)C3CCC4C(C3)OC3(CC(OC(=O)/C=C/c5ccccc5)C(C)CO3)C43CO3)OC(C)C(O)C2OC(C)=O)C1O (stereo unspecified) | 104 |
| CC(C)CCCCCCCCCCCCC(=O)NCC(=O)NC1C(O)C(O)C(Nc2ncnc3nc[nH]c23)OC1C(O)CO (stereo unspecified) | 87 |
| CC(=O)OC1CC(OC2C(O)CC(OC3C(O)CC(OC4CCC5(C)C(CCC6C5CCC5(C)C(C7=CC(=O)OC7)C(O)CC65O)C4)OC3C)OC2C)OC(C)C1OC1OC(CO)C(O)C(O)C1O (stereo unspecified) | 370 |
| CC(=O)OC1CC(OC2C(O)CC(OC3C(O)CC(OC4CCC5(C)C(CCC6C5CC(O)C5(C)C(C7=CC(=O)OC7)CCC65O)C4)OC3C)OC2C)OC(C)C1OC1OC(CO)C(O)C(O)C1O (stereo unspecified) | 92 |
| c1ccc2nc(-c3ccc(N4CCOCC4)cc3)ccc2c1 | 385 |
| COc1ccc(CCc2cc(OC)c(OC)c(OC)c2)cc1 | 40 |

| Compound | AC50 [nM] |
| --- | --- |
| NC(=O)c1cc2c3ccccc3ccn2c1-c1ccccc1 | 635 |
| N#Cc1c(NC(=O)CSc2ncn[nH]2)sc2c1CCCC2 | 303 |
| Cc1ccc(CCC(=O)Nc2ncc(Cc3cc(Cl)ccc3Cl)s2)o1 | 841 |
| CC(=NNC(=S)N(Cc1ccccn1)Cc1ccccn1)c1cnccn1 | 878 |
| COc1cc(/C=C2\COC/C(=C\c3cc(OC)c(OC)c(OC)c3)C2=O)cc(OC)c1OC | 788 |
| COc1ccc(C(=O)Nc2nc3ccccc3s2)c(OC)c1 | < 38 |
| Cc1cccc(C(=O)O/N=C(\N)c2ccccn2)c1 | 915 |
| COC(=O)C1=C(C(=O)OC)SC2(S1)C(C(=O)OC)=C(C(=O)OC)Sc1c2ssc1=O | 2620 |
| CSC1SCC2C(=O)N(C)C(C(C)C)C(=O)OCC(NC(=O)c3cnc4ccccc4n3)C(=O)NC(C)C(=O)N(C)C1C(=O)N(C)C(C(C)C)C(=O)OCC(NC(=O)c1cnc3ccccc3n1)C(=O)NC(C)C(=O)N2C (stereo unspecified) | < 38 |
| CCN1C=CC(=C2C(=O)c3ccccc3C2=O)C=C1 | 89 |
| CCCCN1C=CC(=C2C(=O)c3ccccc3C2=O)C=C1 | 248 |
| O=C1N(c2ccccc2)C[C@@H]2C[C@@H](c3cc4ccccc4o3)N3CCC[C@@]123 | 511 |
| S=C(Nc1ccccc1)Nc1ccc(OCc2ccc(Cl)cc2Cl)cc1 | 355 |
| CC1CCOC(=O)C=CC=CC(=O)OC2CC3OC4C5OC5(C)C(O)CC4(COC(=O)C1O)C2(C)C31CO1 (stereo unspecified) | 148 |
| COc1cccc2c1C(=O)c1c(O)c3c(c(O)c1C2=O)C[C@@](O)(C(=O)CO)C[C@@H]3O[C@H]1C[C@H](N)[C@H](O)[C@H](C)O1 | 650 |
| COc1ccc(C2=Nn3c(nnc3-c3ccccc3OC)SC2)cc1OC | 395 |
| Cc1ccc(C(=O)O/N=C(\N)c2ccccc2)c(Cl)c1 | 948 |
| COc1ccc(C[C@H]2NC[C@H](O)[C@H]2OC(C)=O)cc1 | 378 |
| CC[C@@H](C)[C@H](C(CC(=O)N1CCCC1[C@@H](OC)[C@H](C)C(=O)N[C@H](Cc1ccccc1)c1nccs1)OC)N(C)C(=O)[C@H](NC(=O)[C@@H](C(C)C)N(C)C)C(C)C (stereo partly specified) | 117 |
| COc1cc(-c2noc(C)c2/C=C/c2cccc([N+](=O)[O-])c2)cc(OC)c1OC | 2540 |
| CCN1CCN(Cc2ccc(NC(=O)c3ccc(C)c(NC(=O)c4cncc(-c5cccs5)c4)c3)cc2C(F)(F)F)CC1 | 156 |
| CCOC(=O)COc1cccc2c(=O)n(CC(=O)NCc3ccc(F)cc3)ccc12 | 1540 |
| COc1ccc(/C=N/NC(=O)c2[nH]c3ccc(Br)cc3c2-c2ccccc2)cc1 | 209 |
| CC1=CC2OC3CC4OC(=O)C=CC=CC(=O)OCCC(C)C(O)C(=O)OCC2(CC1O)C4(C)C31CO1 (stereo unspecified) | < 38 |

| Compound | AC50 [nM] |
| --- | --- |
| c1ccc(-c2noc(-c3ccc4c(c3)OCO4)n2)nc1 | 140 |
| O=C(/C=C/Nc1ccccc1Br)c1ccccn1 | 281 |
| CCOc1ccc(C(=O)O/N=C(\N)c2ccccn2)cc1 | 134 |
| CC(C)(C)c1ccc(C(=O)O/N=C(\N)c2ccccn2)cc1 | 317 |
| C[C@H]1CCC/C=C/C2C[C@H](O)CC2[C@H](O)/C=C/C(=O)O1 (stereo partly specified) | 40 |
| O=C(NCCc1ccccc1F)c1ccc2c(c1)OCCO2 | 140 |
| C[C@]12CCC3C(CCC4=CC(O)CC[C@@]43/C=N/O)C1(O)CCC2C1=CC(=O)OC1 (stereo partly specified) | 308 |
| Cc1ccccc1OCC(=O)Nc1cccc(C(=O)O)c1 | 422 |
| CCC1=Nc2cc(C(=O)NCc3ccco3)ccc2Sc2ccc(C)cc21 | 652 |
| O=c1c2ccccc2cnn1CCOc1ccccc1 | 354 |
| O=C(CN1C(=O)c2ccccc2S1(=O)=O)c1ccc(OC(F)F)cc1 | 657 |
| CC1=CC(C)CC(C)OC(=O)CC(c2ccc(O)cc2)NC(=O)C(Cc2c(Br)[nH]c3ccccc23)N(C)C(=O)C(C)NC(=O)C(C)C1 (stereo unspecified) | 146 |
| CC(=O)O[C@H]1C(=O)[C@@]2(C)[C@H]([C@H](OC(=O)c3ccccc3)[C@]3(O)C[C@H](OC(=O)[C@H](O)[C@@H](NC(=O)c4ccccc4)c4ccccc4)C(C)=C1C3(C)C)[C@]1(OC(C)=O)CO[C@@H]1C[C@@H]2O | 227 |
| CN=c1scc(-c2ccccc2F)n1/N=C/c1ccc[nH]1 | < 38 |
| Fc1ccc(-c2nnc(NC3=NCCCCC3)o2)cc1 | 372 |
| C=C1C(=O)O[C@@H]2C[C@@H](C)[C@@H]3C=CC(=O)[C@@]3(C)[C@@H](OC(=O)CC(=O)O[C@H]3[C@@H]4C(=C)C(=O)O[C@@H]4C[C@@H](C)[C@@H]4C=CC(=O)[C@]43C)[C@H]12 | 633 |
| COc1ccc(C2=Nn3c(nnc3-c3ccccc3OC)SC2)cc1OC1CCCC1 | 2970 |
| C[C@H]1O[C@@H](OC2CC[C@]3(C=O)[C@H]4CC[C@]5(C)[C@@H](C6=CC(=O)OC6)CC[C@]5(O)[C@@H]4CC[C@]3(O)C2)CC2OC(C)(C)OC21 (stereo partly specified) | 123 |
| COc1cc(-c2noc(C)c2/C=C/c2ccc(OC(C)=O)cc2)cc(OC)c1OC | 555 |
| Cc1c(C(=O)OCc2ccccc2)[nH]c2c1C(=O)CC(c1ccco1)C2 (stereo unspecified) | 388 |
| COC(=O)CCn1nnc(-c2ccc(C(C)C)cc2)n1 | 314 |
| CN1CCN(c2ccc([N+](=O)[O-])c3no[n+]([O-])c23)CC1 | 2340 |
| COc1cccc(NC(=O)Nc2cccc(C(=O)O)c2)c1 | 645 |
| COC(=O)c1ccc(Oc2cc(C)nc(-n3nc(C)cc3C)n2)cc1 | 536 |

| Compound | AC50 [nM] |
| --- | --- |
| C=CCn1c(C)cc(C2=NNC(=NCC)SC2)c1C | < 38 |
| O=C(NCCc1ccccc1)c1ccc2c(c1)OCCO2 | 196 |
| C(=N\Nc1ccc2ccccc2n1)/c1ccc2c(c1)OCCO2 | 1220 |
| Cc1ccc(Nc2nc(-c3c(C)nc4ncccn34)cs2)cc1 | 168 |
| COc1cc2c(c(OC)c1OC)-c1ccc(OC)c(=O)cc1[C@@H](N(C)CC#CCO)CC2 | 235 |
| CCC(C)C1NC(=O)C(NC(=O)C(CC(C)C)N(C)C(=O)C2CCCN2C(=O)C(C)O)C(C)OC(=O)C(Cc2ccc(OC)cc2)N(C)C(=O)C2CCCN2C(=O)C(CC(C)C)NC(=O)[C@H](C)C(=O)[C@H](C(C)C)OC(=O)CC1O (stereo partly specified) | 84 |
| CCN(CC)c1ccc2c(cc1=O)[C@@H](NC)CCc1cc(OC)c(OC)c(OC)c1-2 | 634 |
| CN(C)CCN1C(=O)c2cccc3cc([N+](=O)[O-])cc(c23)C1=O | 433 |
| COC(C(=O)C(O)C(C)O)C1Cc2cc3cc(OC4CC(OC5CC(O)C(O)C(C)O5)C(O)C(C)O4)c(C)c(O)c3c(O)c2C(=O)C1OC1CC(OC2CC(OC3CC(O)C(OC)C(C)O3)C(O)C(C)O2)C(O)C(C)O1 (stereo unspecified) | 83 |
| CCC1(OC(=O)CN)C(=O)OCc2c1cc1n(c2=O)Cc2cc3ccccc3nc2-1 (stereo unspecified) | 987 |
| Cc1c(C(=O)OCCOC(C)C)[nH]c2c1C(=O)CC(c1ccco1)C2 (stereo unspecified) | 450 |
| CCOC(=O)c1ccc(NC(=O)Nc2ccon2)cc1 | 596 |
| C=C1CC(Cn2cc(Br)c(=O)[nH]c2=O)(c2ccc(-c3ccccc3)cc2)OC1=O (stereo unspecified) | 1160 |
| CC(=O)O[C@H]1[C@H]2O[C@]23[C@@H]2CC[C@]4(O)C[C@@H](O)CC[C@]4(C)C2CC[C@]3(C)[C@H]1c1ccc(=O)oc1 (stereo partly specified) | 120 |
| CN(C)c1ccc2c(c1)OC(N)=C(C#N)C2c1cccc(F)c1 (stereo unspecified) | 179 |
| Nc1ncnc2c(C3OC(CO)C(O)C3O)scc12 (stereo unspecified) | 2450 |
| CC1CCCN(c2ccc([N+](=O)[O-])cc2C(=O)c2ccccc2)C1 (stereo unspecified) | 1670 |
| Cc1ccc(/C=N/NC(=O)COc2ccccc2-c2ccccc2)cc1 | 172 |
| COc1cc(SC)ccc1C(=O)Nc1ncc(C)s1 | 361 |
| Cc1ccc(C(=O)n2c(N)nc3ccccc32)cc1 | 493 |
| Cc1cc(C2=NNC(=NC3CC3)SC2)c(C)n1-c1ccccc1 | < 38 |
| CCOC(=O)C(C)Oc1cccc2c(=O)n(CC(=O)NCc3ccccc3)ccc12 (stereo unspecified) | 919 |
| CC1=C(C(=O)Nc2ccc(CC(=O)NCc3ccc(OC(C)C)cc3)cc2)SCCO1 | 974 |
| COC(=O)C1CCC(=O)N1C(c1ccc(OC)cc1)c1cc(OC)c(OC)c(OC)c1 (stereo unspecified) | 676 |
